Source: US12673955B2, “Crystal form of p-toluenesulfonate salt of diazabicyclic compound and preparation method therefor” (CRYSTAL PHARMATECH CO., LTD., priority 2020, dated 2026)

Assays:
Type in all cases: physicochemical
[1] = Adhesiveness propensity study (material sticking to the punch); conditions: 8 mm round tooling, 10 kN, 30 s
Protocol: Approximately 30 mg of tosylate Form A and the solid in the prior art were weighed and then added into the dies of 8 mm round tooling, compressed at 10 kN pressure and held for 30 s. The punch was weighed and amount of material sticking to the punch was calculated. The compression was repeated once and the cumulative amount, maximum amount and average amount of material sticking to the punch during the compression were recorded.

[2] = Hygroscopicity study by dynamic vapor sorption (DVS)
Protocol: The dynamic vapor sorption diagrams of the present disclosure were collected on Intrinsic-type and Intrinsic Plus-type dynamic vapor sorption instruments of SMS company. The parameters of the dynamic vapor sorption test of the present disclosure were as follows: • Temperature: 25° C. • Protection gas and flow rate: N2, 200 m L/min • dm/dt: 0.002%/min • Minimum dm/dt equilibration time: 10 min • Maximum Equilibration Time: 180 min • Relative humidity range: 0% RH-95% RH-0% RH • Relative humidity gradient: 10% (0% RH-90% RH-0% RH), 5% (90% RH-95% RH and 95% RH-90% RH).
Dynamic vapor sorption (DVS) was applied to test hygroscopicity of tosylate Form A solid and solid in the prior art with about 10 mg of samples. XRPD patterns were collected.
Non-hygroscopic or almost non hygroscopic: increase in mass is less than 0.2 percent.

[3] = Compressibility of crystalline form (manual tablet press, 350 MPa)
Protocol: A manual tablet press was used for tabletting. Appropriate amount of tosylate Form A and solid in the prior art were compressed by circle punches under 350 MPa pressure to form a tablet. Hardness (H) of the tablet was determined to be 18.36 N by a tablet hardness tester. Diameter (D) and thickness (L) of the tablet were determined to be 6 mm and 1.02 mm by a vernier caliper, respectively. The tensile strength of the tablets was calculated to be 1.9 MPa through the equation of T=2H/πDL.

[4] = Crystal habit by polarized light microscopy
Source text: The polarized light microscope photos of the present disclosure were taken at room temperature with a Zeiss microscope Axio Scope.A1 equipped with an Axiocam 305 color camera and 5×, 10×, 20× and 50× objective lenses.

[5] = Solubility of crystalline form (saturated solutions measured by HPLC); conditions: for solubility at 1 h / solubility at 2 h / solubility at 4 h / solubility at 24 h: thermodynamic from solid
Protocol: Tosylate Form A and solid in the prior art were suspended into SGF, FaSSIF, FeSSIF and water to get saturated solutions. After equilibrated for 1 hour, 2 hours, 4 hours and 24 hours, concentrations of the saturated solutions were measured by HPLC.

[6] = PSD test (laser particle size analyzer, wet method)
Protocol: The particle size distribution results of the present disclosure were collected on S3500-type laser particle size analyzer of the Microtrac company. The Microtrac S3500 was equipped with an SDC (Sample Delivery Controller) sampling system. The wet method was used in this test, using Isopar G (containing 0.2% lecithin) as the test dispersion medium. The process parameters of the laser particle size analyzer were as follows.
Approximately 10-30 mg of tosylate Form A solid was added into 10 mL of Isopar G (containing 0.2% lecithin). The mixture was mixed thoroughly and transferred into the SDC. The experiment was started when the obscuration is in appropriate range. The particle size distribution (PSD) was tested before and after 30 seconds of ultrasound.

[7] = Intrinsic dissolution of crystalline form; conditions: pH 6.8 phosphate buffer, 900 mL, 37° C., paddle, tablet surface 0.5 cm^2
Protocol: The intrinsic dissolution rate data of the present disclosure were collected on an Agilent 708DS-type dissolution apparatus of the Agilent company. The intrinsic dissolution test conditions were as follows.
Approximately 100 mg of tosylate Form A and the solid in the prior art were added into the cavity of the die, and then compressed at 5 KN and held for 1 minute to obtain a tablet having a surface area of 0.5 cm^2.

[8] = Stability study of tosylate Form A (XRPD and chemical impurity after storage)
Protocol: Approximately 10 mg of tosylate Form A were stored under different conditions of 25° C./60% RH and 40° C./75% RH. XRPD and chemical impurity were checked at 1 week, 2 weeks, 4 weeks and 8 weeks.
Based on the above results, tosylate Form A kept stable for at least 8 weeks.

[9] = Isopar G containing 0.2% lecithin
[10] = 25° C./60% RH and 40° C./75% RH, up to 8 weeks

With `Cn1cc(Nc2nccc(N3C[C@H]4CC[C@@H](C3)N4C(=O)[C@@H]3CC3(F)F)n2)cn1` [tosylate Form A, ((1S)-2,2-difluorocyclo-propyl) ((1R,5S)-3-(2-((1-methyl-1H-pyrazol-4-yl)amino)pyrimidin-4-yl)-3,8-diazabicyclo[3.2.1]octan-8-yl)methanone] the “adhesiveness compared with the prior art solid” value [1] was “superior to the prior art solid”, the “form change after DVS test (XRPD)” value ([2]; 0% RH-95% RH-0% RH, 25° C.) was “no obvious form change” and the hygroscopicity class ([2]; Chinese Pharmacopoeia 2015 definition, from DVS weight gain at 80% RH) was “slightly hygroscopic”. The “weight gain (DVS)” value ([2]; at 80% RH, 25° C.) was 0.35%, the “hygroscopicity compared with the prior art” value ([2]; versus solid in the prior art) was “relatively lower hygroscopicity” and the compressibility ([3]; 350 MPa pressure) was “good compressibility”. The “tensile strength of the tablets” value ([3]; calculated by T=2H/πDL, tablet compressed under 350 MPa) was 1.9 MPa, the “Hardness (H) of the tablet” value ([3]; tablet compressed under 350 MPa, diameter 6 mm, thickness 1.02 mm) was 18.36 N and the flowability ([4]; inferred from crystal habit) was “good flowability”. The crystal habit ([4]; polarized light microscopy) was “rod-like particles”, the “solubility compared with solid in the prior art” value ([5]; SGF, FaSSIF, FeSSIF and water) was “higher than that of solid in the prior art” and the solubility at 1 h ([5]; simulated gastric fluid, SGF) was 5540 µg/mL. For the same compound, the solubility at 2 h ([5]; simulated gastric fluid, SGF) was 5990 µg/mL, the solubility at 4 h ([5]; simulated gastric fluid, SGF) was 5080 µg/mL and the solubility at 24 h ([5]; simulated gastric fluid, SGF) was 5690 µg/mL. For the same compound, the solubility at 1 h ([5]; FaSSIF) was 7120 µg/mL, the solubility at 2 h ([5]; FaSSIF) was 7310 µg/mL and the solubility at 4 h ([5]; FaSSIF) was 7300 µg/mL. It also gave a solubility at 24 h ([5]; FaSSIF) of 7540 µg/mL, a solubility at 1 h ([5]; FeSSIF) of 6770 µg/mL and a solubility at 2 h ([5]; FeSSIF) of 7030 µg/mL. It also gave a solubility at 4 h ([5]; FeSSIF) of 7340 µg/mL, a solubility at 24 h ([5]; FeSSIF) of 7780 µg/mL and a solubility at 1 h ([5]; water, H2O) of 5260 µg/mL. For the same compound, the solubility at 2 h ([5]; water, H2O) was 5340 µg/mL, the solubility at 4 h ([5]; water, H2O) was 5240 µg/mL and the solubility at 24 h ([5]; water, H2O) was 5560 µg/mL. For the same compound, the “change of particle size distribution after sonication” value ([6]; 30 seconds of ultrasound) was “no obvious change or agglomeration”, the “mean particle size (MV)” value [6, 9] was 400 μm and the “particle size distribution shape” value [6, 9] was “unimodal distribution”. For the same compound, the “intrinsic dissolution rate compared with the solid in the prior art” value [7] was “higher dissolution rate than the solid in the prior art”, the time kept stable ([8]; 25° C./60% RH and 40° C./75% RH) was “at least 8 weeks” and the “Crystalline state after storage” value [8, 10] was “doesn't change”. For the same compound, the “chemical purity after storage” value [8, 10] was “above 99%”, the Puriy ([8]; 25° C./60% RH, 1 week) was 99.92% and the Puriy ([8]; 25° C./60% RH, 2 weeks) was 100.0%. The Puriy ([8]; 25° C./60% RH, 4 weeks) was 99.89%, the Puriy ([8]; 25° C./60% RH, 8 weeks) was 99.92% and the Puriy ([8]; 40° C./75% RH, 1 week) was 99.90%. It also gave a Puriy ([8]; 40° C./75% RH, 2 weeks) of 99.91%, a Puriy ([8]; 40° C./75% RH, 4 weeks) of 99.90% and a Puriy ([8]; 40° C./75% RH, 8 weeks) of 99.91%.
